Source: patent US20130011480A1, “CYTOTOXIC THERAPY BY PROTON FLUX MODULATION” (priority 2011, published 2013)
Where a name gives a salt, the structure may show the parent alone. Read-outs that look alike come from different tables or passages of the source.

Assays:
hepatoblastoma cells = settings: morphological observations and flow cytometry; cited from earlier work
[1] = test system: normal human hepatic cells; settings: treated versus untreated cells; cited from earlier work
human breast cancer = settings: chronic oral administration; cited from earlier work
[2] = Cancer patients treated orally with acid-efflux inhibitor combinations: side effects; type: in vivo, human
Experimental: Patients have been treated orally with a combination of drugs that inhibit the efflux of acid (H+, CO2, and/or lactic acid). Although these drugs tend to alkalinize the extracellular milieu of cancer cells, they may be administered in combinations that achieve a metabolic acidosis.
Esomeprazole (vacuolar H+ ATPase pump inhibitor) was used either daily or every other day, with a dose ranging from 240 mg per day up to 320 mg per day, or more.
Methazolamide (a carbonic anhydrase inhibitor) was used every other day with a dose ranging from 50 mg per day up to a maximum of 400 mg per day. […] Side effects were especially noticeable in a patient with elevated liver function tests due to metastatic disease to the liver.
Amiloride (Na−H+ exchanger inhibitor and an inhibitor of urokinase plasminogen activator) was used daily at a dose of 20 mg per day, or more. Because amiloride is a potassium-sparing diuretic, with a propensity to cause hyperkalemia, HCTZ, at 25 mg 2 times per day was administered as well. In addition, the use of amiloride in combination with HCTZ has shown to inhibit metastases more effectively than when amiloride is used alone.
NaHCO3 (Arm & Hammer Baking Soda) was used daily, in some cases, at a dose ranging from 5 grams to 30 grams per day, or more.
Intravenous lactate and/or glucose (with or without insulin) are useful for potentiating this therapy. […]

CA3 neurons [3] = settings: 50 μM; CO2/HCO3−-buffered; cited from earlier work
[4] = test system: high-voltage-activated Ca2+ channels; settings: hippocampal CA1 neurons; cited from earlier work
N-type Ca2+ channel = biological target: T1, N-type Ca2+ channel (Homo sapiens, UniProt Q00975); settings: calculated for 50 μM; cited from earlier work
T1 construct: N-type Ca2+ channels of hippocampal CA1 neurons; host or cells: hippocampal CA1 neurons
T1 sequence (Q00975 whole entry): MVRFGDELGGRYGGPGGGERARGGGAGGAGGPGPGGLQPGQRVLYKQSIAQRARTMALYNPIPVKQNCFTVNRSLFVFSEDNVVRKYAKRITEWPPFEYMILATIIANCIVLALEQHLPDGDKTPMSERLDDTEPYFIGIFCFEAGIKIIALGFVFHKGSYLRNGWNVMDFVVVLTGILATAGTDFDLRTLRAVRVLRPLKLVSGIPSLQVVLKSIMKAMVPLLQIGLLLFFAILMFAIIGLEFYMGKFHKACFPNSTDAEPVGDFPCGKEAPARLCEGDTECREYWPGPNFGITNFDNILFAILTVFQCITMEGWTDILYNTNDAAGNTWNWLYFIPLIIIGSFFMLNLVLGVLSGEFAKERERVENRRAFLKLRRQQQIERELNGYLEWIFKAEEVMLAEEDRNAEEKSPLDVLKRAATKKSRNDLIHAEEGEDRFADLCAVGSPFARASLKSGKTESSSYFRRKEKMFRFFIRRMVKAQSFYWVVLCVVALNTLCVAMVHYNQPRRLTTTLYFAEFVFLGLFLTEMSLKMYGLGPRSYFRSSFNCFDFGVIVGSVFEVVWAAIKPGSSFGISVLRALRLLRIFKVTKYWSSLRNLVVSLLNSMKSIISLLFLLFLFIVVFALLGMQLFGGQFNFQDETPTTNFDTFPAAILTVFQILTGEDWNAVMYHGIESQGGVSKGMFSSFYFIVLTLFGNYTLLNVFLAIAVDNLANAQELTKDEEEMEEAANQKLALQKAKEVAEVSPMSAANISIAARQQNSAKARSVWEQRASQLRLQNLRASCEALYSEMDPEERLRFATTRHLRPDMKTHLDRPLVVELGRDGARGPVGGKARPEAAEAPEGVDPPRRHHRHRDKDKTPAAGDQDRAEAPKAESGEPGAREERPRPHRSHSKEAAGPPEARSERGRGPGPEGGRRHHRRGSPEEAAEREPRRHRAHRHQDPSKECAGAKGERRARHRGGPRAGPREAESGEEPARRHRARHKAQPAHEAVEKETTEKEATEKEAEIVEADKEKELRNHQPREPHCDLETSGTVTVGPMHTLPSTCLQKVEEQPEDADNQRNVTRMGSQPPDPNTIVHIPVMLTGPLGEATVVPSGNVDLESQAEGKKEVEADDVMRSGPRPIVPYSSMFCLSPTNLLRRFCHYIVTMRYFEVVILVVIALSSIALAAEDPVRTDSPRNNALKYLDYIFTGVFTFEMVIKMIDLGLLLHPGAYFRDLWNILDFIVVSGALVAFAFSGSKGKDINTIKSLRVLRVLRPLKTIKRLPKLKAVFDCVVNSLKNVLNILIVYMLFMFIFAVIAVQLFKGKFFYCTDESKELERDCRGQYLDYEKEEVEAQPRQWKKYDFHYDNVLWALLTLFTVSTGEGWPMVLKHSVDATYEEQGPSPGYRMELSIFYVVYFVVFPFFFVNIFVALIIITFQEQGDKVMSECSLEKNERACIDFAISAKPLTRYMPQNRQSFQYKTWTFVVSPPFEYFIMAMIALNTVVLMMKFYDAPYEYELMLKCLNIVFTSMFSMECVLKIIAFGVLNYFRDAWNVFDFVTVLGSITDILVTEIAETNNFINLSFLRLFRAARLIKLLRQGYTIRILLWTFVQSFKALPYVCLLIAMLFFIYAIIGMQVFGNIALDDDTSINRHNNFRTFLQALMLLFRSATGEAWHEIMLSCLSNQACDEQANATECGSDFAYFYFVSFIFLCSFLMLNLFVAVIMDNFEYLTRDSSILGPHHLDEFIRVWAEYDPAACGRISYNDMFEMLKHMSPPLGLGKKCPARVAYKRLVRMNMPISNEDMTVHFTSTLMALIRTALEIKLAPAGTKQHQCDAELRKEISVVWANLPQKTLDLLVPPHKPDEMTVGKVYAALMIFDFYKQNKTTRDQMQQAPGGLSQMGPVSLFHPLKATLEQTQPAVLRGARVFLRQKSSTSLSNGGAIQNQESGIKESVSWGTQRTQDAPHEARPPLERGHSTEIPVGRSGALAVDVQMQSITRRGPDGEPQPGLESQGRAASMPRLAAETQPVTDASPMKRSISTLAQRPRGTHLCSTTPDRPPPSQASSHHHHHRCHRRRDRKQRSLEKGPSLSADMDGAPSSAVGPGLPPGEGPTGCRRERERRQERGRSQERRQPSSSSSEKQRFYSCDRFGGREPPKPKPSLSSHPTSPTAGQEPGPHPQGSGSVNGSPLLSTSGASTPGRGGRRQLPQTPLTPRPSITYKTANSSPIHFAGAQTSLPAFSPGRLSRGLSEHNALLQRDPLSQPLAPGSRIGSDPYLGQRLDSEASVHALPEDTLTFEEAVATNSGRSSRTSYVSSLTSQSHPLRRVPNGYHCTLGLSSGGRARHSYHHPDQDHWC

[5] = test system: Na+-independent Cl−/HCO3− exchange; settings: cited from earlier work
CA3 neurons [6] = settings: cited from earlier work
K+ channels = settings: 100-500 μM; cited from earlier work
NHE1 = NHE1 (Homo sapiens, UniProt P19634); settings: NHE1 inhibition; cited from earlier work
Chain of NHE1 (P19634 whole entry, species assumed): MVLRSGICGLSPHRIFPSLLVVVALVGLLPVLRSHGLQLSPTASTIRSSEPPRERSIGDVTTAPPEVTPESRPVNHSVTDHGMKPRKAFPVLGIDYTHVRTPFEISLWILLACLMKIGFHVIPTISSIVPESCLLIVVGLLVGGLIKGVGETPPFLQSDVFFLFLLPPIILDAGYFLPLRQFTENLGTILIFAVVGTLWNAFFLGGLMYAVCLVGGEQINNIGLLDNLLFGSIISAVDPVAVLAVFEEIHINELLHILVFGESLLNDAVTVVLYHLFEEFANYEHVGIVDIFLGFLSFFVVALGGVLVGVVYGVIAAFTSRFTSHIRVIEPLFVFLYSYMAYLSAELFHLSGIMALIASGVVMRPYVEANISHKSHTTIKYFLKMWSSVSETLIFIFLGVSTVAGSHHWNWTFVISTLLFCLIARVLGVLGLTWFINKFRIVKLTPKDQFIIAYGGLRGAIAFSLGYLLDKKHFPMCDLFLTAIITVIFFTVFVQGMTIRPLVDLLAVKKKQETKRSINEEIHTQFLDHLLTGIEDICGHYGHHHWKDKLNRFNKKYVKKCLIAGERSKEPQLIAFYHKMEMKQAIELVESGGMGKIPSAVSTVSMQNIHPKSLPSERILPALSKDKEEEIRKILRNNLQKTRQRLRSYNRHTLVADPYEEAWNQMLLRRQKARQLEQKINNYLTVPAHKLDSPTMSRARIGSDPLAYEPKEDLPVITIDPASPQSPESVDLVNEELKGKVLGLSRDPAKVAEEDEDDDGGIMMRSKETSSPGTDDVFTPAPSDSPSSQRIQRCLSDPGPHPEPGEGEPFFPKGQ

[7] = as low as; dose dependent; cited from earlier work
human melanoma [8] = settings: preadministration; cited from earlier work
[9] = raises metabolic rate and promotes weight loss; cited from earlier work
human melanoma [10] = settings: well-tolerated doses; cited from earlier work
proton pump = proton pump (Homo sapiens, UniProt P20648); settings: compared with classical PPIs; cited from earlier work
Chain of proton pump (P20648 whole entry): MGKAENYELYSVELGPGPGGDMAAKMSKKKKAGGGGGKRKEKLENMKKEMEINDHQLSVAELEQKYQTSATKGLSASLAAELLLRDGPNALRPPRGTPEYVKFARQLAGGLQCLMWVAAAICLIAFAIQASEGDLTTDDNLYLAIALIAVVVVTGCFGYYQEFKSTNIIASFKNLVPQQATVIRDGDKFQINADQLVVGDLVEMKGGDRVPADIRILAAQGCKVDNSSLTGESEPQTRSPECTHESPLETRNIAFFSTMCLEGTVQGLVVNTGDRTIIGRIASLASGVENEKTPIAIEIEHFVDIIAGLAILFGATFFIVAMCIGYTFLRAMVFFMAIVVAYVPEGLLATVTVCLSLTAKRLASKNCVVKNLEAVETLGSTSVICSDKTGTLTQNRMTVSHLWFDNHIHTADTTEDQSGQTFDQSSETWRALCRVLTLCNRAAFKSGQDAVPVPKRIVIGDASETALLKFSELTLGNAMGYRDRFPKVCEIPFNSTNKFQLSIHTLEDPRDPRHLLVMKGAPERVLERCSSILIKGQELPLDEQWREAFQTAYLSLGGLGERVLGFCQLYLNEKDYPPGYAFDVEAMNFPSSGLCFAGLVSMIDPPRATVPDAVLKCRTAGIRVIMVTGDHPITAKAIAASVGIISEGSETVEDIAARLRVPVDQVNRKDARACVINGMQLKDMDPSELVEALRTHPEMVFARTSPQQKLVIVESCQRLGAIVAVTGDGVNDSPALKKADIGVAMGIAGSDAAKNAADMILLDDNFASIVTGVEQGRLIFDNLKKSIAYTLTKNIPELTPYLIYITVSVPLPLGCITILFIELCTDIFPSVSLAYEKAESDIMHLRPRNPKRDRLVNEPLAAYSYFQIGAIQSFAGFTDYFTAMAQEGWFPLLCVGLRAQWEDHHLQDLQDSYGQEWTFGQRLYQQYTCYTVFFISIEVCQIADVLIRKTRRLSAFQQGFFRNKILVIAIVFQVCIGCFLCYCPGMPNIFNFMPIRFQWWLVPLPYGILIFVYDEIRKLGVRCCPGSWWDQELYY
Chain of proton pump (P51164 whole entry partner): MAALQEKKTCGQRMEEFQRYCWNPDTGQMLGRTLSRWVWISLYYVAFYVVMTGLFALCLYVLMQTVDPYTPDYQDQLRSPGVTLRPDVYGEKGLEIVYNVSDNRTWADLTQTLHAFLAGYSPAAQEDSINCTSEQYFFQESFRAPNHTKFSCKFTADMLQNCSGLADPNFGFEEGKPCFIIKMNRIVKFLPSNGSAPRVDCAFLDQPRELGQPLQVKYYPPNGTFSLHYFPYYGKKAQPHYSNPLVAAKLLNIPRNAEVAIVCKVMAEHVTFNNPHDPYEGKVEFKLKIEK

[11] = test system: isolated normal rat hepatocyte; settings: 72 hours' treatment; read-out: 50% inhibitory concentrations (IC(50)); cited from earlier work
[12] = test system: subcutaneous xenografted Huh-7 cells; settings: 1 or 10 mg/kg/d subcutaneously, 2 weeks, cited from earlier work
Huh-7 cells = settings: cited from earlier work

CO/C1=C\C(C)=C\[C@@H](C)[C@@H](O)[C@@H](C)C/C(C)=C/C=C/[C@H](OC)[C@@H]([C@@H](C)[C@@H](O)[C@H](C)[C@@]2(O)C[C@@H](O)[C@H](C)[C@@H](C(C)C)O2)OC1=O [Baf-A1, Bafilomycin A1]
cellular reproduction and apoptosis (hepatoblastoma cells): inhibits hepatoblastoma cellular reproduction by inducing apoptosis | inhibition of cell growth [1]: negligible

O=C([O-])O.[Na+] [sodium bicarbonate]
expansion of primary tumors (human breast cancer): not influencing the expansion of primary tumors | metastases in lung, visceral organs, and lymph nodes (human breast cancer): markedly reduces the number and size of metastases | side effects ([2]; daily, 5 grams to 30 grams per day): bloating and abdominal discomfort

CC[C@@H](C(N)=O)N1CCCC1=O [LEV, levetiracetam]
steady-state pHi after preincubation (CA3 neurons [3]): 6.82 | reduction of high-voltage-activated calcium currents [4]: about 20% | reduction of N-type Ca2+ channel currents (N-type Ca2+ channel): ca. 15% | alkalinization upon removal of extracellular Cl− ([5]; 50, preincubation 15 min, n=5): no effect | effect on pHi (CA3 neurons [6]; 1 μM (n=4)): without any effect | effect on steady-state pHi (CA3 neurons [6]; 10 μM (n=3)): Small shifts | steady-state pHi (CA3 neurons [6]; 50 μM, Na+-free CO2/HCO3−-buffered solution, n=5): not likely further influenced | mean acidification of steady-state pHi, nonresponding neurons excluded (CA3 neurons [6]; 50 μM, neuronal somata, CO2/HCO3−-buffered solution, n=8): 0.19±0.07 pH units | mean acidification of steady-state pHi (CA3 neurons [6]; 50 μM, neuronal somata, CO2/HCO3−-buffered solution, n=11): 0.14±0.09 pH units | decrease of pHi (CA3 neurons [6]; 50 μM, nominal absence of extracellular CO2/HCO3−, HEPES pH 7.4, n=5): abolished | decrease of pHi of larger regions (CA3 neurons [6]; 50 μM, stratum pyramidale, CO2/HCO3−-buffered solution, n=5): 0.11±0.04 pH units | effect on pHi (CA3 neurons [6]; increase to 100 μM (n=4)): without additional effect | inhibition of K+ channels (K+ channels): less than 20%

CC(=O)/N=c1/sc(S(N)(=O)=O)nn1C [Methazolamide]
side effects ([2]; every other day, 50 mg per day up to 400 mg per day): tingling in extremities, acidosis, fatigue, and nausea

O=S(=O)(O)c1cc(N=C=S)ccc1C=Cc1ccc(N=C=S)cc1S(=O)(=O)O [DIDS, 4,4′-diisothiocyanato-stilbene-2,2′-disulfonic acid]
alkalinization upon removal of extracellular Cl− ([5]; 500 μM, pretreatment 15 min, n=3): completely abolished

CCN(c1nc(N)c(C(=O)N=C(N)N)nc1Cl)C(C)C [EIPA, 5-(N-ethyl-N-isopropyl)-amiloride]
potency relative to amiloride (NHE1): about 200 times

N=C(N)NC(=O)c1nc(Cl)c(N)nc1N [amiloride]
doses found effective [7]: ≥ 0.3 mg/kg body weight per day

COc1ccc2[nH]c([S+]([O-])Cc3ncc(C)c(OC)c3C)nc2c1 (stereo not drawn) [omeprazole]
growth-retardant impact of cisplatin (human melanoma [8]): potentiate the growth-retardant impact of cisplatin

O=[N+]([O-])c1ccc(O)c([N+](=O)[O-])c1 [DNP, dinitrophenol]
reasonably well tolerated daily dose [9]: 3 to 5 mg/kg

COc1ccc2nc([S@@+]([O-])Cc3ncc(C)c(OC)c3C)[nH]c2c1 [esomeprazole, Esomeprazole]
tumor growth and survival (human melanoma [10]): markedly impede tumor growth and prolong survival

Cc1nc(Nc2ccc(F)cc2)nc(N2CCc3ccccc3C2C)c1C (stereo not drawn) [revaprazan]
time to block H+ secretion (proton pump): within a half-hour

COC1=CC(c2ccc[nH]2)=N/C1=C\c1[nH]c(C)c2c1C(C)CCC2 (stereo not drawn) [cPrG-HCl, Cycloprodigiosin hydrochloride]
IC50 [11]: 8.4 µM | pathological changes in organs [12]: No pathological changes were observed in any organs | serum alanine transaminase levels [12]: remained within normal limits | tumor growth ([12]; compared with the control after 8 days): significantly inhibited tumor growth | pHi (Huh-7 cells; lowered pHi): < 6.8 | apoptosis (Huh-7 cells; subG(1) population, DNA fragmentation, chromatin condensation): induced apoptosis

COCCO[C@@H]1c2ccn3c(C)c(C)nc3c2N[C@H](c2ccccc2)[C@H]1O [Soraprazan]
time to block H+ secretion (proton pump): within a half-hour
